# Assay results as given in US12428415B2, “Matriptase 2 inhibitors and uses thereof” (Disc Medicine, Inc., priority 2018, dated 2025).
# Target: T1, Human Recombinant Matriptase 2 (Homo sapiens, UniProt Q8IU80)
# T1 construct: purchased Enzo Life Sciences (an in-house preparation was also used) ALX-201-752-1
# T1 sequence (Q8IU80 1-811): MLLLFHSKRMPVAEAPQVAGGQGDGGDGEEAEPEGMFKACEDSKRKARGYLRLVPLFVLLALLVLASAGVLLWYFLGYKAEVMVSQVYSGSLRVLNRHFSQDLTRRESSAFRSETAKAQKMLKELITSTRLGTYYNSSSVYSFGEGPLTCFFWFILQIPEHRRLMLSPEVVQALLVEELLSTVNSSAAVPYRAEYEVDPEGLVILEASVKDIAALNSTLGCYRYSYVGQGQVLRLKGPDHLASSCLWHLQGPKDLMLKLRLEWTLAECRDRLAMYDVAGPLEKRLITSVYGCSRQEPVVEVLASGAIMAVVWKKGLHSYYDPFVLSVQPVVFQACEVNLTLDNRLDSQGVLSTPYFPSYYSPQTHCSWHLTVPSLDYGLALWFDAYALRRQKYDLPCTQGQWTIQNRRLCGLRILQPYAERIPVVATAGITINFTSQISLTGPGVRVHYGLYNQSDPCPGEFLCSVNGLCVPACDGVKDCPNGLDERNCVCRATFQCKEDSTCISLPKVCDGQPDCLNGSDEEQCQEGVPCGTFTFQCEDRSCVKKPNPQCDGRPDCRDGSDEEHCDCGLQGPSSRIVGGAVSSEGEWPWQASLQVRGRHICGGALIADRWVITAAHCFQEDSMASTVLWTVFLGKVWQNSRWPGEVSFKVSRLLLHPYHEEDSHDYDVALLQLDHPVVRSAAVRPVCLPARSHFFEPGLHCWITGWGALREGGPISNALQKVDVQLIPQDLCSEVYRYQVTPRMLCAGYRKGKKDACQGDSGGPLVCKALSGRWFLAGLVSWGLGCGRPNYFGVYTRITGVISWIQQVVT
# Assay: Matriptase 2 fluorescence based inhibition assay, Method A (100 mM TRIS pH 9, 1 mg/mL BSA)
# Assay type: biochemical
# Conditions: 1 uM compound; Assay Used = A; read-out: Mar-2 % inhibition at 1 uM
# Summary of the method: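 At 25° C in 100 mM TRIS pH 9 with 1 mg/mL BSA and 1% DMSO, compounds were preincubated 30 min with 7 nM commercial or 15 nM in-house protein before adding 100 μM Boc-Gln-Ala-Arg-7-amido-4-methyl coumarin. Fluorescence at 360/480 nm after 60 min; single points at 1 and 10 μM, IC50 by variable-slope nonlinear regression.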
row,inhibition at 1 µM [%],Compound
1,25 to 50,"N=C(N)c1ccc2cc(C(=O)NCC3CCNCC3)n(Cc3ccc4ccccc4c3)c2c1 [Compound I-406, 6-carbamimidoyl-1-(naphthalen-2-ylmethyl)-N-(piperidin-4-ylmethyl)-1H-indole-2-carboxamide]"

# Same assay, conditions: 1 uM; Assay Used A; read-out: Mar-2 % inhibition at 1 uM
row,inhibition at 1 µM [%],Compound
1,0 to 25,"CCOC(=O)Nc1c(C(=O)NC2CCC(N)CC2)n(CCS(=O)(=O)c2ccccc2)c2cc(/C(N)=N/O)ccc12 (centres unmarked) [Compound I-57, Ethyl (2-(((1r,4r)-4-aminocyclohexyl)carbamoyl)-6-((Z)—N′-hydroxycarbamimidoyl)-1-(2-(phenylsulfonyl)ethyl)-1H-indol-3-yl)carbamate]"
2,0 to 25,N=C(N)c1ccc2cc(C(=O)Nc3cccc(N4CCOCC4)c3)n(Cc3ccc(C(N)=O)cc3)c2c1 [Compound I-129]
3,25 to 50,"N=C(N)c1ccc2c(N)c(C(=O)N[C@H]3CC[C@H](N)CC3)n(CCS(=O)(=O)c3ccccc3)c2c1 [Compound I-56, 3-Amino-N-((1r,4r)-4-aminocyclohexyl)-6-carbamimidoyl-1-(2-(phenylsulfonyl)ethyl)-1H-indole-2-carboxamide]"
4,50 to 75,N=C(N)c1ccc2cc(C(=O)NCC3CCNCC3)n(CCS(=O)(=O)c3ccccc3)c2c1 [Compound I-50]
5,0 to 25,CC(C)(NC(=O)c1cc2ccc(C(=N)N)cc2n1Cc1ccc(C(N)=O)cc1)c1ccc(Cl)cc1 [Compound I-109]
6,0 to 25,CC(C)[C@H](NC(=O)c1cc2ccc(C(=N)N)cc2n1Cc1ccc(C(N)=O)cc1)c1ccccc1 [Compound I-82]
7,0 to 25,C[C@H](NC(=O)c1cc2ccc(C(=N)N)cc2n1Cc1ccc(C(N)=O)cc1)C1CCCCC1 [Compound I-193]
8,0 to 25,CC(C)COC(=O)NC(=N)c1ccc2cc(C(=O)Nc3cccc(N4CCCC4)c3)n(Cc3ccc(C(N)=O)cc3)c2c1 [Compound I-147]
9,0 to 25,N=C(N)c1ccc2cc(C(=O)Nc3cccc(-n4cccc4)c3)n(Cc3ccc(C(N)=O)cc3)c2c1 [Compound I-154]
10,0 to 25,"N=C(N)c1ccc2c(N)c(C(=O)NCC3CCCCC3)n(CCS(=O)(=O)c3ccccc3)c2c1 [Compound I-58, 3-Amino-6-carbamimidoyl-N-(cyclohexylmethyl)-1-(2-(phenylsulfonyl)ethyl)-1H-indole-2-carboxamide]"
11,0 to 25,Cc1ccc(NC(=O)c2cc3ccc(C(=N)N)cc3n2Cc2ccc(C(N)=O)cc2)nc1 [Compound I-171]
12,0 to 25,"N=C(N)c1ccc2c(N)c(C(=O)N[C@H]3CC[C@H](N)CC3)n(CCc3ccc(C(F)(F)F)cc3)c2c1 [Compound I-33, 3-Amino-N-((1r,4r)-4-aminocyclohexyl)-6-carbamimidoyl-1-(4-(trifluoromethyl)-phenethyl)-1H-indole-2-carboxamide]"
13,0 to 25,N=C(N)c1ccc2cc(C(=O)NCc3ccccc3)n(Cc3ccc(C(N)=O)cc3)c2c1 [Compound I-77]
14,0 to 25,"N=C(N)c1ccc2c([N+](=O)[O-])c(C(=O)N[C@H]3CC[C@H](N)CC3)n(CCS(=O)(=O)c3ccccc3)c2c1 [Compound I-55, N-((1r,4r)-4-Aminocyclohexyl)-6-carbamimidoyl-3-nitro-1-(2-(phenylsulfonyl)ethyl)-1H-indole-2-carboxamide]"
15,0 to 25,CC(C)c1cccc(NC(=O)c2cc3ccc(C(=N)N)cc3n2Cc2ccc(C(N)=O)cc2)c1 [Compound I-79]
16,0 to 25,CC1CCC(NC(=O)c2cc3ccc(C(=N)N)cc3n2Cc2ccc(C(N)=O)cc2)CC1 (centres unmarked) [Compound I-185]
17,0 to 25,N=C(N)c1ccc2cc(C(=O)NCC3CCCCC3)n(Cc3ccc(C(N)=O)cc3)c2c1 [Compound I-191]
18,0 to 25,N=C(N)c1ccc2cc(C(=O)Nc3cccnc3)n(Cc3ccc(C(N)=O)cc3)c2c1 [Compound I-170]
19,0 to 25,N=C(N)c1ccc2cc(C(=O)Nc3ccc(C(=O)N4CCC4)cc3)n(Cc3ccc(C(N)=O)cc3)c2c1 [Compound I-92]
20,0 to 25,CCOC(=O)NC(=N)c1ccc2cc(C(=O)Nc3cccc(N4CCCC4)c3)n(Cc3ccc(C(N)=O)cc3)c2c1 [Compound I-120]
21,0 to 25,N=C(N)c1ccc2cc(C(=O)Nc3ccnc(N4CCCC4)c3)n(Cc3ccc(C(N)=O)cc3)c2c1 [Compound I-178]
22,0 to 25,"CN1CCC(N(C)C(=O)c2cc3ccc(C(=N)N)cc3n2Cc2ccc(C(N)=O)cc2)C1 (centres unmarked) [Compound I-103, 6-Carbamimidoyl-1-(4-carbamoylbenzyl)-N-methyl-N-(1-methylpyrrolidin-3-yl)-1H-indole-2-carboxamide]"
23,0 to 25,"N=C(N)c1ccc2cc(C(=O)Nc3ccc(N)nc3)n(Cc3ccc(C(F)(F)F)cc3)c2c1 [Compound I-1, N-(6-aminopyridin-3-yl)-6-carbamimidoyl-1-(4-(trifluoromethyl)benzyl)-1H-indole-2-carboxamide]"
24,0 to 25,N=C(N)c1ccc2cc(C(=O)NCc3cccc(C(F)(F)F)c3)n(Cc3ccc(C(N)=O)cc3)c2c1 [Compound I-83]
25,25 to 50,N=C(N)c1ccc2cc(C(=O)N[C@H]3CC[C@H](N)CC3)n(Cc3ccc(C(N)=O)cc3)c2c1 [Compound I-184]

# Same assay, conditions: at 1 uM; Assay Used = A; read-out: Mar-2 % inhibition at 1 uM
row,inhibition at 1 µM [%],Compound
1,0 to 25,N=C(N)c1ccc2cc(C(=O)N3CCC[C@H](CF)C3)n(Cc3ccc(C(N)=O)cc3)c2c1 [Compound I-332]
2,0 to 25,N=C(N)c1ccc2cc(C(=O)N3CCC4CCCCC4C3)n(CCS(=O)(=O)c3ccccc3)c2c1 (centres unmarked) [Compound I-339]
3,0 to 25,NCCC1CCN(C(=O)c2cc3ccc(/C(N)=N\O)cc3n2Cc2ccc(-c3ccccc3)cc2)CC1 [Compound I-380]
4,0 to 25,N=C(N)c1ccc2cc(C(=O)N3CCC(F)CC3)n(Cc3cccc(NC(=O)CCN)c3)c2c1 [Compound I-366]
5,0 to 25,N=C(N)c1ccc2cc(C(=O)N3CC[C@H](F)C3)n(Cc3cccc(NC(=O)CCN)c3)c2c1 [Compound I-368]
6,0 to 25,N=C(N)c1ccc2c(N)c(C(=O)N3CCC(CCNC(=O)O)CC3)n(Cc3ccc(Oc4ccccc4)cc3)c2c1 [Compound I-347]
7,0 to 25,N=C(N)c1ccc2cc(C(=O)N3CCC(F)(F)CC3)n(Cc3ccc(-c4ccccc4)cc3)c2c1 [Compound I-306]
8,0 to 25,"CC1CCC(NC(=O)c2cc3ccc(C(=N)N)cc3n2Cc2ccc(C(=O)NC3CC3)cc2)CC1 (centres unmarked) [Compound I-219, 6-Carbamimidoyl-1-(4-(cyclopropylcarbamoyl)benzyl)-N-(4-methylcyclohexyl)-1H-indole-2-carboxamide]"
9,0 to 25,N=C(N)c1ccc2c(Cl)c(C(=O)N3CCC(F)CC3)n(Cc3ccc(C(N)=O)cc3)c2c1 [Compound I-355]
10,25 to 50,CCc1ccc(-c2cccc(Cn3c(C(=O)NC4CCC(N)CC4)cc4ccc(C(=N)N)cc43)c2)cc1 (centres unmarked) [Compound I-238]
11,0 to 25,CNC(=O)c1ccc(Cn2c(C(=O)N3CCC(F)CC3)cc3ccc(C(=N)N)cc32)cc1 [Compound I-388]
12,25 to 50,CN1CCC(NC(=O)c2cc3ccc(C(=N)N)cc3n2Cc2ccc(C(N)=O)cc2)CC1 [Compound I-206]
13,0 to 25,"N=C(N)c1ccc2cc(C(=O)NC3CCC(F)(F)CC3)n(Cc3cccc(NC(=O)CCN)c3)c2c1 [Compound I-260, 1-(3-(3-Aminopropanamido)benzyl)-6-carbamimidoyl-N-(4,4-difluorocyclohexyl)-1H-indole-2-carboxamide]"
14,25 to 50,N=C(N)c1ccc2cc(C(=O)N3CCC(CCN)CC3)n(CCC(N)=O)c2c1 [Compound I-276]
15,0 to 25,"N=C(N)c1ccc2cc(C(=O)N3CCC(C(=O)NCCCN)CC3)n(Cc3ccc(C(F)(F)F)cc3)c2c1 [Compound I-356, N-(3-Aminopropyl)-1-(6-carbamimidoyl-1-(4-(trifluoromethyl)benzyl)-1H-indole-2-carbonyl)-piperidine-4-carboxamide]"
16,0 to 25,N=C(N)c1ccc2cc(C(=O)N3CCCC(F)(F)C3)n(Cc3ccc(C(N)=O)cc3)c2c1 [Compound I-328]
17,0 to 25,N=C(N)c1ccc2cc(C(=O)N3CCC(CCN)CC3)n(Cc3ccc(OC(F)(F)F)cc3)c2c1 [Compound I-288]
18,25 to 50,"CCOC(=O)Nc1c(C(=O)N[C@H]2CC[C@H](N)CC2)n(Cc2ccc(Oc3ccccc3)cc2)c2cc(C(=N)NO)ccc12 [Compound I-254, Ethyl (2-(((1r,4r)-4-aminocyclohexyl)carbamoyl)-6-((Z)—N′-hydroxycarbamimidoyl)-1-(4-phenoxybenzyl)-1H-indol-3-yl)carbamate]"
